Laboratory results from the NIST ThermoML archive (doi:10.1021/acs.jced.7b00002).

Test: xn = mol fraction of the nth substance listed
Conditions: 97.6 kPa, Liquid; for viscosity: Capillary tube (Ostwald / Ubbelohde) method; for mass density: Vibrating tube method

CCCCCCCC[n+]1ccn(C)c1.[Cl-] [1-methyl-3-octylimidazolium chloride] + C[S+](C)[O-]
Conditions | mass density [kg/m3] | viscosity [mPa·s]
303.15 K, x1 = 0.13 | 1067.88 | 6.85
303.15 K, x1 = 0.253 | 1051.57 | 24.14
303.15 K, x1 = 0.338 | 1042.77 | 55.12
303.15 K, x1 = 0.439 | 1034.29 | 143.43
303.15 K, x1 = 0.574 | 1025.26 | 371.36
303.15 K, x1 = 0.75 | 1015.41 | 1084.7
303.15 K, x1 = 0.862 | 1011.18 | 3235.6
303.15 K, x1 = 1 | 1006.2 | 7339.7
308.15 K, x1 = 0.13 | 1063.71 | 6
308.15 K, x1 = 0.253 | 1047.84 | 19.97
308.15 K, x1 = 0.338 | 1039.2 | 43.8
308.15 K, x1 = 0.439 | 1030.91 | 107.7
308.15 K, x1 = 0.574 | 1022.09 | 264.22
308.15 K, x1 = 0.75 | 1012.38 | 742.47
308.15 K, x1 = 0.862 | 1008.24 | 2150.9
308.15 K, x1 = 1 | 1003.33 | 4272.9
313.15 K, x1 = 0.13 | 1059.55 | 5.24
313.15 K, x1 = 0.253 | 1044.09 | 16.54
313.15 K, x1 = 0.338 | 1035.65 | 34.98
313.15 K, x1 = 0.439 | 1027.54 | 82.42
313.15 K, x1 = 0.574 | 1018.92 | 192.92
313.15 K, x1 = 0.75 | 1009.41 | 508.33
313.15 K, x1 = 0.862 | 1005.31 | 1404.4
313.15 K, x1 = 1 | 1000.48 | 2766.9
318.15 K, x1 = 0.13 | 1055.41 | 4.62
318.15 K, x1 = 0.253 | 1040.39 | 13.89
318.15 K, x1 = 0.338 | 1032.11 | 28.15
318.15 K, x1 = 0.439 | 1024.18 | 63.95
318.15 K, x1 = 0.574 | 1015.75 | 143.95
318.15 K, x1 = 0.75 | 1006.46 | 363.38
318.15 K, x1 = 0.862 | 1002.4 | 943.52
318.15 K, x1 = 1 | 997.64 | 1788.6
323.15 K, x1 = 0.13 | 1051.26 | 4.1
323.15 K, x1 = 0.253 | 1036.65 | 11.8
323.15 K, x1 = 0.338 | 1028.58 | 23.25
323.15 K, x1 = 0.439 | 1020.83 | 50.83
323.15 K, x1 = 0.574 | 1012.58 | 109.49
323.15 K, x1 = 0.75 | 1003.51 | 264.93
323.15 K, x1 = 0.862 | 999.47 | 653.9
323.15 K, x1 = 1 | 994.82 | 1198.7
328.15 K, x1 = 0.13 | 1047.12 | 3.67
328.15 K, x1 = 0.253 | 1032.95 | 10.12
328.15 K, x1 = 0.338 | 1025.06 | 19.36
328.15 K, x1 = 0.439 | 1017.51 | 41.01
328.15 K, x1 = 0.574 | 1009.43 | 84.97
328.15 K, x1 = 0.75 | 1000.56 | 197.17
328.15 K, x1 = 0.862 | 996.58 | 466.77
328.15 K, x1 = 1 | 992 | 828.3
333.15 K, x1 = 0.13 | 1042.98 | 3.31
333.15 K, x1 = 0.253 | 1029.24 | 8.78
333.15 K, x1 = 0.338 | 1021.55 | 16.31
333.15 K, x1 = 0.439 | 1014.19 | 33.28
333.15 K, x1 = 0.574 | 1006.28 | 67.04
333.15 K, x1 = 0.75 | 997.59 | 149.71
333.15 K, x1 = 0.862 | 993.72 | 338.65
333.15 K, x1 = 1 | 989.17 | 588.69
338.15 K, x1 = 0.13 | 1038.85 | 3
338.15 K, x1 = 0.253 | 1025.55 | 7.66
338.15 K, x1 = 0.338 | 1018.05 | 13.91
338.15 K, x1 = 0.439 | 1010.88 | 27.38
338.15 K, x1 = 0.574 | 1003.15 | 53.77
338.15 K, x1 = 0.75 | 994.64 | 115.48
338.15 K, x1 = 0.862 | 990.88 | 250.15
338.15 K, x1 = 1 | 986.38 | 426.28
343.15 K, x1 = 0.13 | 1034.72 | 2.72
343.15 K, x1 = 0.253 | 1021.86 | 6.75
343.15 K, x1 = 0.338 | 1014.56 | 11.95
343.15 K, x1 = 0.439 | 1007.59 | 22.97
343.15 K, x1 = 0.574 | 1000.03 | 43.6
343.15 K, x1 = 0.75 | 991.75 | 90.8
343.15 K, x1 = 0.862 | 988.04 | 189.55
343.15 K, x1 = 1 | 983.63 | 316.66
348.15 K, x1 = 0.13 | 1030.6 | 2.5
348.15 K, x1 = 0.253 | 1018.18 | 5.98
348.15 K, x1 = 0.338 | 1011.07 | 10.37
348.15 K, x1 = 0.439 | 1004.31 | 19.28
348.15 K, x1 = 0.574 | 996.93 | 35.76
348.15 K, x1 = 0.75 | 988.9 | 72.27
348.15 K, x1 = 0.862 | 985.2 | 145.53
348.15 K, x1 = 1 | 980.88 | 237.14
353.15 K, x1 = 0.13 | 1026.47 | 2.29
353.15 K, x1 = 0.253 | 1014.51 | 5.34
353.15 K, x1 = 0.338 | 1007.6 | 9.06
353.15 K, x1 = 0.439 | 1001.04 | 16.49
353.15 K, x1 = 0.574 | 993.83 | 29.9
353.15 K, x1 = 0.75 | 985.96 | 58.87
353.15 K, x1 = 0.862 | 982.37 | 113.93
353.15 K, x1 = 1 | 978.13 | 181.41

CCCCCCCC[n+]1ccn(C)c1.[Cl-] [1-methyl-3-octylimidazolium chloride] + c1ccncc1
Conditions | mass density [kg/m3] | viscosity [mPa·s]
303.15 K, x1 = 0.128 | 988.9 | 3.46
303.15 K, x1 = 0.255 | 998.25 | 12.71
303.15 K, x1 = 0.339 | 1000.33 | 29.41
303.15 K, x1 = 0.445 | 1002.78 | 84.05
303.15 K, x1 = 0.578 | 1004.43 | 290.77
303.15 K, x1 = 0.755 | 1005.83 | 863.91
303.15 K, x1 = 0.865 | 1005.51 | 2828.1
303.15 K, x1 = 1 | 1006.2 | 7339.7
308.15 K, x1 = 0.128 | 984.71 | 3.11
308.15 K, x1 = 0.255 | 994.55 | 10.87
308.15 K, x1 = 0.339 | 996.84 | 24.13
308.15 K, x1 = 0.445 | 999.45 | 65.58
308.15 K, x1 = 0.578 | 1001.29 | 215.57
308.15 K, x1 = 0.755 | 1002.79 | 599.38
308.15 K, x1 = 0.865 | 1002.58 | 1823.5
308.15 K, x1 = 1 | 1003.33 | 4272.9
313.15 K, x1 = 0.128 | 980.51 | 2.81
313.15 K, x1 = 0.255 | 990.84 | 9.39
313.15 K, x1 = 0.339 | 993.34 | 20.12
313.15 K, x1 = 0.445 | 996.14 | 51.96
313.15 K, x1 = 0.578 | 998.15 | 161.31
313.15 K, x1 = 0.755 | 999.79 | 426
313.15 K, x1 = 0.865 | 999.66 | 1210.7
313.15 K, x1 = 1 | 1000.48 | 2766.9
318.15 K, x1 = 0.128 | 976.31 | 2.56
318.15 K, x1 = 0.255 | 987.14 | 8.17
318.15 K, x1 = 0.339 | 989.85 | 16.97
318.15 K, x1 = 0.445 | 992.85 | 42.02
318.15 K, x1 = 0.578 | 995.01 | 123.18
318.15 K, x1 = 0.755 | 996.82 | 309.61
318.15 K, x1 = 0.865 | 996.75 | 829.67
318.15 K, x1 = 1 | 997.64 | 1788.6
323.15 K, x1 = 0.128 | 972.1 | 2.34
323.15 K, x1 = 0.255 | 983.45 | 7.17
323.15 K, x1 = 0.339 | 986.38 | 14.49
323.15 K, x1 = 0.445 | 989.57 | 34.4
323.15 K, x1 = 0.578 | 991.88 | 96.06
323.15 K, x1 = 0.755 | 993.86 | 230.68
323.15 K, x1 = 0.865 | 993.8 | 583.82
323.15 K, x1 = 1 | 994.82 | 1198.7
328.15 K, x1 = 0.128 | 967.86 | 2.15
328.15 K, x1 = 0.255 | 979.75 | 6.34
328.15 K, x1 = 0.339 | 982.9 | 12.56
328.15 K, x1 = 0.445 | 986.28 | 28.53
328.15 K, x1 = 0.578 | 988.75 | 75.98
328.15 K, x1 = 0.755 | 990.9 | 174.4
328.15 K, x1 = 0.865 | 990.92 | 419.77
328.15 K, x1 = 1 | 992 | 828.3
333.15 K, x1 = 0.128 | 963.58 | 1.98
333.15 K, x1 = 0.255 | 976.06 | 5.65
333.15 K, x1 = 0.339 | 979.42 | 10.81
333.15 K, x1 = 0.445 | 983 | 23.98
333.15 K, x1 = 0.578 | 985.64 | 61.06
333.15 K, x1 = 0.755 | 987.95 | 134.84
333.15 K, x1 = 0.865 | 988.06 | 309.69
333.15 K, x1 = 1 | 989.17 | 588.69
338.15 K, x1 = 0.128 | 959.29 | 1.83
338.15 K, x1 = 0.255 | 972.37 | 5.06
338.15 K, x1 = 0.339 | 975.93 | 9.51
338.15 K, x1 = 0.445 | 979.67 | 20.37
338.15 K, x1 = 0.578 | 982.53 | 49.81
338.15 K, x1 = 0.755 | 984.99 | –
338.15 K, x1 = 0.865 | 985.22 | 233.02
338.15 K, x1 = 1 | 986.38 | 426.28
343.15 K, x1 = 0.128 | 955.03 | 1.7
343.15 K, x1 = 0.255 | 968.68 | 4.56
343.15 K, x1 = 0.339 | 972.4 | 8.37
343.15 K, x1 = 0.445 | 976.42 | 17.42
343.15 K, x1 = 0.578 | 979.44 | 41.06
343.15 K, x1 = 0.755 | 982.04 | 84.08
343.15 K, x1 = 0.865 | 982.37 | 177.92
343.15 K, x1 = 1 | 983.63 | 316.66
348.15 K, x1 = 0.128 | 950.66 | 1.58
348.15 K, x1 = 0.255 | 965 | 4.13
348.15 K, x1 = 0.339 | 968.9 | 7.4
348.15 K, x1 = 0.445 | 973.05 | 15.01
348.15 K, x1 = 0.578 | 976.36 | 34.18
348.15 K, x1 = 0.755 | 979.11 | 68.04
348.15 K, x1 = 0.865 | 979.56 | 138.26
348.15 K, x1 = 1 | 980.88 | 237.14
353.15 K, x1 = 0.128 | 946.27 | 1.48
353.15 K, x1 = 0.255 | 961.31 | 3.76
353.15 K, x1 = 0.339 | 965.27 | 6.63
353.15 K, x1 = 0.445 | 969.48 | 13.03
353.15 K, x1 = 0.578 | 973.29 | 28.74
353.15 K, x1 = 0.755 | 976.18 | 55.2
353.15 K, x1 = 0.865 | 976.69 | 108.95
353.15 K, x1 = 1 | 978.13 | 181.41
